{
  "source": "ChEMBL document CHEMBL1145099",
  "about": "“Aloisines, a new family of CDK/GSK-3 inhibitors. SAR study, crystal structure in complex with CDK2, enzyme selectivity, and cellular effects” (J Med Chem, 2003)",
  "key": {"[1]": {"target": "Cyclin-dependent kinase 2/cyclin A (Homo sapiens, UniProt P24941)", "assay": "Inhibition of Cyclin-dependent kinase 2-cyclin A", "type": "protein-complex assay"}, "[2]": {"target": "Cyclin-dependent kinase 4/cyclin D1 (Homo sapiens, UniProt P11802)", "sequence (P11802 whole entry)": "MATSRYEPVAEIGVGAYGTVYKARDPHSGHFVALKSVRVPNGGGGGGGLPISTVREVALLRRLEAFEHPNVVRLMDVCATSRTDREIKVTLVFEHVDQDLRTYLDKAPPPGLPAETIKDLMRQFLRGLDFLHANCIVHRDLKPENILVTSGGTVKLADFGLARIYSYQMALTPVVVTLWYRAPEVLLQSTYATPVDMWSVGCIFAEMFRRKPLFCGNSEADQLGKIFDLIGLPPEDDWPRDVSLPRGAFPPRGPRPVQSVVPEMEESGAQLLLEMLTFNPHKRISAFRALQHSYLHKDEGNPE", "sequence (P24385 whole entry, further chain)": "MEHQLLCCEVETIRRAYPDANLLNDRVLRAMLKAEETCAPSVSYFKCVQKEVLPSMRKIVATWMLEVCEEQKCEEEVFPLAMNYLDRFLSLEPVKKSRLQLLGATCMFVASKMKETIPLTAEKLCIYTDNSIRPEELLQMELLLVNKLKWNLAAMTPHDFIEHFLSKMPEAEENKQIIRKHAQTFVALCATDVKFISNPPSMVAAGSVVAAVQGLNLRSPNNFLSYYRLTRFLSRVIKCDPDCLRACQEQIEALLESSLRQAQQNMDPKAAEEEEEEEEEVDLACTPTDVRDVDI", "assay": "Inhibition of Cyclin-dependent kinase 4-cyclin D1"}, "[3]": {"target": "Cyclin-dependent kinase 2/cyclin E (Homo sapiens, UniProt P24941)", "assay": "Inhibition of Cyclin-dependent kinase 2-cyclin E", "type": "protein-complex assay"}, "Casein kinase II": {"target": "Casein kinase II (Homo sapiens, UniProt P19784+P67870+P68400)", "sequence (P67870 whole entry)": "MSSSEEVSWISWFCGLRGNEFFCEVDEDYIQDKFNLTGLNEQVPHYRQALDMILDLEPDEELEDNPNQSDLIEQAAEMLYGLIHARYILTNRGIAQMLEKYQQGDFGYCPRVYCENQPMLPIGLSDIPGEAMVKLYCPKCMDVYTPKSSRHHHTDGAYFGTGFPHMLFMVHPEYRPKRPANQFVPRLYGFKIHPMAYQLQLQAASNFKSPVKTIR", "sequence (P68400 whole entry)": "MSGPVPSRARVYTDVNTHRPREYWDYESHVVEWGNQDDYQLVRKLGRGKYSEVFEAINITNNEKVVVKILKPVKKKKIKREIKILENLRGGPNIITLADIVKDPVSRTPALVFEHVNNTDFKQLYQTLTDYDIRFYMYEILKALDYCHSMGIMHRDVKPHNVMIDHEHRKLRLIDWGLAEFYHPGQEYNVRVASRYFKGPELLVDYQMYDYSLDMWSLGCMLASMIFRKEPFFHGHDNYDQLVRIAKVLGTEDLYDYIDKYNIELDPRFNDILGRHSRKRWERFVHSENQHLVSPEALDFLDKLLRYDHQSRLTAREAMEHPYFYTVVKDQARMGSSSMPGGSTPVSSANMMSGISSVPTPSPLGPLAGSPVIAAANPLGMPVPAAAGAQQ", "sequence (P19784 whole entry)": "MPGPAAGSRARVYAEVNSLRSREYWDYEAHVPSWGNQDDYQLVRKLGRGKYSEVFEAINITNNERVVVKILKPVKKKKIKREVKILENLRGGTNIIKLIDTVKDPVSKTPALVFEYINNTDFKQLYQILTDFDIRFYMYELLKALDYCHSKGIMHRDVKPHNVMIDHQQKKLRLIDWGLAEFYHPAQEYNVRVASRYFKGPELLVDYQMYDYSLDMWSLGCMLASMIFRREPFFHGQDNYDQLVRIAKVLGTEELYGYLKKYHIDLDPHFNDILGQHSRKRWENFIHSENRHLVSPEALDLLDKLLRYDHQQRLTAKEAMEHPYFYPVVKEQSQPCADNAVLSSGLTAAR", "assay": "Inhibition of Casein kinase II", "type": "protein-complex assay"}, "[4]": {"target": "Dual specificity mitogen-activated protein kinase kinase; MEK1/2 (Homo sapiens, UniProt P36507+Q02750)", "assay": "Inhibition of Mitogen activated protein kinase kinase", "type": "protein assay"}, "[5]": {"assay": "Inhibition of cAMP dependent protein kinase, PKA"}, "[6]": {"target": "T1, Protein kinase C zeta type (Homo sapiens, UniProt Q05513)", "T1 sequence (Q05513 whole entry)": "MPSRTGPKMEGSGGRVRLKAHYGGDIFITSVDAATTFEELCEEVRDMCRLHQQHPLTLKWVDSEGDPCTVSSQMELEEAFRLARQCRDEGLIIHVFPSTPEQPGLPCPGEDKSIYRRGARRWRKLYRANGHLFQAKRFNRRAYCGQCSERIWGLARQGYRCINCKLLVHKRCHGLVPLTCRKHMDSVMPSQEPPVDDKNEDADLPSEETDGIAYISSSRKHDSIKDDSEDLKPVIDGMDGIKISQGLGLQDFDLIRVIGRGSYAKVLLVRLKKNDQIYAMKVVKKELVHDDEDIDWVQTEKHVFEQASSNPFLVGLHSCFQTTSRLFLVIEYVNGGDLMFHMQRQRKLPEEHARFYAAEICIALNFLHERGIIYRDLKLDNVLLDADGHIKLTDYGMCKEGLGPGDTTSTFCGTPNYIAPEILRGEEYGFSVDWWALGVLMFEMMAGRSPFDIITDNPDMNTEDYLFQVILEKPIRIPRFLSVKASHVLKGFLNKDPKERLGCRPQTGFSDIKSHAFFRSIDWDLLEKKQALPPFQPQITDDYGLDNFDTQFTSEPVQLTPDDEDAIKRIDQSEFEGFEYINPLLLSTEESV", "assay": "Inhibition of protein kinase C zeta"}, "[7]": {"target": "Protein kinase C beta type (Homo sapiens, UniProt P05771)", "sequence (P05771 whole entry)": "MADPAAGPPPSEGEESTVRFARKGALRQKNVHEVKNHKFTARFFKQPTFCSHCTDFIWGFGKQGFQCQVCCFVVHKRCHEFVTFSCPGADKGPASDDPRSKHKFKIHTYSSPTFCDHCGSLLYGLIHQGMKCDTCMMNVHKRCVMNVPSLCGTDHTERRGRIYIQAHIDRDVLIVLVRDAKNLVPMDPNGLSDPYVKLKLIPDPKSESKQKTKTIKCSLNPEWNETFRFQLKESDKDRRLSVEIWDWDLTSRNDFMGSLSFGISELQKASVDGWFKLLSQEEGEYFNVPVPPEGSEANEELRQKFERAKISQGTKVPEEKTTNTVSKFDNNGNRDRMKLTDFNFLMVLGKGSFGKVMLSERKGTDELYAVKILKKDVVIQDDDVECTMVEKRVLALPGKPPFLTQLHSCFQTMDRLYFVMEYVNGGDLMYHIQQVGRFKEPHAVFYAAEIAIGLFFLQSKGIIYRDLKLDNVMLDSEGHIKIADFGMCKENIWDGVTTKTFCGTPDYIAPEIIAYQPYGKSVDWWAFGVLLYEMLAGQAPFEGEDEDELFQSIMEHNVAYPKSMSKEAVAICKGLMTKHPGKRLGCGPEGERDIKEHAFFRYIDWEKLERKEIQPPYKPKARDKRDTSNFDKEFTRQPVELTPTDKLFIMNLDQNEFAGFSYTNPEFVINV", "assay": "Inhibition of Protein kinase C beta"}, "[8]": {"assay": "Inhibition of cGMP-dependent protein kinase"}, "[9]": {"target": "T2, Serine/threonine-protein kinase D1 (Homo sapiens, UniProt Q15139)", "T2 sequence (Q15139 whole entry)": "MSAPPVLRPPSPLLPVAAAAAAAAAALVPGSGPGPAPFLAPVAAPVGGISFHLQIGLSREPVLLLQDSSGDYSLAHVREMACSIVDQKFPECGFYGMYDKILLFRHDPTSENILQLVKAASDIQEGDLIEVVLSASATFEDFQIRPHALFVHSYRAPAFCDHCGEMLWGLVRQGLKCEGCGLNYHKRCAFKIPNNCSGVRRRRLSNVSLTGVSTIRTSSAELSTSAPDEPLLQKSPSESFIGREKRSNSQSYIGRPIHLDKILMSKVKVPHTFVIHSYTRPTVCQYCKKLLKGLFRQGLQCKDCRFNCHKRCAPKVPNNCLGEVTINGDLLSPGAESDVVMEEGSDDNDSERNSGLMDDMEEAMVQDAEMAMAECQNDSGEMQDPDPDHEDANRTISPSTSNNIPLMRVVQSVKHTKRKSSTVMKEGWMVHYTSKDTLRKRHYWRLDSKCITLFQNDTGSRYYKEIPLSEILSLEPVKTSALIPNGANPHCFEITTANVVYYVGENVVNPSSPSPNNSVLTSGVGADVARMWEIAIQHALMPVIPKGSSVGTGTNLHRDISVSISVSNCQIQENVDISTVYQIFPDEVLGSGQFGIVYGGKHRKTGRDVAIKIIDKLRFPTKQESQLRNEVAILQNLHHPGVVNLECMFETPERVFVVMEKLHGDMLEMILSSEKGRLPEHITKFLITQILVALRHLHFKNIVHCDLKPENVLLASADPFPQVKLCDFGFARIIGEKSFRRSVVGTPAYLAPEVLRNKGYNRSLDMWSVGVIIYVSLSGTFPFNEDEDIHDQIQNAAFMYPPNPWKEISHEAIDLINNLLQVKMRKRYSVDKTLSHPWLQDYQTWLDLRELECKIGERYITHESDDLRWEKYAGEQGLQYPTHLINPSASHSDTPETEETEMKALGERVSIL", "assay": "Inhibition of Protein kinase C mu"}, "[10]": {"target": "RAF proto-oncogene serine/threonine-protein kinase (Homo sapiens, UniProt P04049)", "assay": "Inhibition of RAF proto-oncogene serine/threonine-protein kinase (c-raf)"}, "[11]": {"target": "Protein kinase C gamma type (Homo sapiens, UniProt P05129)", "assay": "Inhibition of Protein kinase C gamma"}, "[12]": {"target": "T3, Protein kinase C epsilon type (Homo sapiens, UniProt Q02156)", "T3 sequence (Q02156 whole entry)": "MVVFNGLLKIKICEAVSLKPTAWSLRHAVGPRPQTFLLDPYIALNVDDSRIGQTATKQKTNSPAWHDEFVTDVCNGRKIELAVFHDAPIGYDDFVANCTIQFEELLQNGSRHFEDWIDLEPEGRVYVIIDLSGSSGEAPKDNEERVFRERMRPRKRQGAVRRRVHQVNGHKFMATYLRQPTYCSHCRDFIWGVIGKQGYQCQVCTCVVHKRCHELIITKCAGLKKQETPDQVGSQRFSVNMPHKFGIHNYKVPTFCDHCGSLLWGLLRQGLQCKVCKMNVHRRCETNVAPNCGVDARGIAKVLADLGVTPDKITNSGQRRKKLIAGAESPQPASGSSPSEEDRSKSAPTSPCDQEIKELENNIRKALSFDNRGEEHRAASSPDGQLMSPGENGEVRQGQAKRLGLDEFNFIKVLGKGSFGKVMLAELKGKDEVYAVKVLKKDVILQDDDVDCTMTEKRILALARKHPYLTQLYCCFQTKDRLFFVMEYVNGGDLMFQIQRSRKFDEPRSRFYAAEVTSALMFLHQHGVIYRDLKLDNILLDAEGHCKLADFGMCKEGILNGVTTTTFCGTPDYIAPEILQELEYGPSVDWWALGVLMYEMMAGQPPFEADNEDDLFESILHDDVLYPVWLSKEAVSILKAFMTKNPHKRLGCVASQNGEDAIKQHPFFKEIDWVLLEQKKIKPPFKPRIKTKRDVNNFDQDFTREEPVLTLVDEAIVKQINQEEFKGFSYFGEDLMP", "assay": "Inhibition of protein kinase C epsilon"}, "[13]": {"target": "Serine/threonine-protein kinase pim-1 (Homo sapiens, UniProt P11309)", "sequence (P11309 whole entry)": "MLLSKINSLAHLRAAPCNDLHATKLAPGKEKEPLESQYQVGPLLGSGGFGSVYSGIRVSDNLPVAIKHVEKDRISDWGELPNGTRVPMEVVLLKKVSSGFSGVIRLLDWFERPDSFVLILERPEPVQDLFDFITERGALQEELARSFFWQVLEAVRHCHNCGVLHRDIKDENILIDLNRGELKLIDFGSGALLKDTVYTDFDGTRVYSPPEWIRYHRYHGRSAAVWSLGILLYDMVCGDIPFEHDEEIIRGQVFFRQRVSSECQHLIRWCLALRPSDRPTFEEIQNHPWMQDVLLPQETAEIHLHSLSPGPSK", "assay": "Inhibition of Protein kinase PIM-1"}, "[14]": {"target": "Protein kinase C delta type (Homo sapiens, UniProt Q05655)", "sequence (Q05655 whole entry)": "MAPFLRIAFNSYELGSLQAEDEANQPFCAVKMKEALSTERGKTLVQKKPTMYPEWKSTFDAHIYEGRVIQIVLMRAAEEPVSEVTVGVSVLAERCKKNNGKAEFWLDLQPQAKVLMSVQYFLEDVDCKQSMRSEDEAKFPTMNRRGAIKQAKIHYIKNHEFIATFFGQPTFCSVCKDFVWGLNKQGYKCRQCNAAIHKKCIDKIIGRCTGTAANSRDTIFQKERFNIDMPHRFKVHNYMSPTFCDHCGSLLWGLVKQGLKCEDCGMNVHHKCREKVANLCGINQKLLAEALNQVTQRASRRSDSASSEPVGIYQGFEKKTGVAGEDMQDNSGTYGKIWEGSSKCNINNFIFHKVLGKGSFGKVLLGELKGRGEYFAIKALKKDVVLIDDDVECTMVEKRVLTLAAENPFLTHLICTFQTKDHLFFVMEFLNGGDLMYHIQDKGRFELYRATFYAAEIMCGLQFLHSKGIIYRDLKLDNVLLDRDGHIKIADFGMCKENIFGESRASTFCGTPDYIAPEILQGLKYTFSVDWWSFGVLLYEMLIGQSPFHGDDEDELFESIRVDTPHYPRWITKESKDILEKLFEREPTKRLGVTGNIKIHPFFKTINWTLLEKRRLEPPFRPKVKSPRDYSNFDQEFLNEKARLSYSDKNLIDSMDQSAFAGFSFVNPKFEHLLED", "assay": "Inhibition of protein kinase C delta"}, "Casein kinase I": {"target": "Casein kinase I", "assay": "Inhibition of Casein kinase I", "type": "protein assay"}, "[15]": {"target": "Protein kinase C alpha type (Homo sapiens, UniProt P17252)", "assay": "Inhibition of protein kinase C alpha"}, "[16]": {"target": "c-Jun N-terminal kinase, JNK (Homo sapiens, UniProt P45983+P53779+P45984)", "assay": "Inhibition of c-Jun N-terminal kinase", "type": "protein assay"}},
  "data": [
    {"smiles": "CCCCc1c(-c2ccc(O)cc2)[nH]c2nccnc12", "note": "[ALOISINE A]", "values": [
      {"measurement": "IC50", "setting": "[1]", "result": 120, "unit": "nM"},
      {"measurement": "IC50", "setting": "[2]", "result": "> 100", "unit": "µM"},
      {"measurement": "IC50", "setting": "[3]", "result": 400, "unit": "nM"},
      {"measurement": "IC50", "setting": "Casein kinase II", "result": "> 100", "unit": "µM"},
      {"measurement": "IC50", "setting": "[4]", "result": "> 100", "unit": "µM"},
      {"measurement": "IC50", "setting": "[5]", "result": 100, "unit": "µM"},
      {"measurement": "IC50", "setting": "[6]", "result": "> 100", "unit": "µM"},
      {"measurement": "IC50", "setting": "[7]", "result": "> 100", "unit": "µM"},
      {"measurement": "IC50", "setting": "[8]", "result": 100, "unit": "µM"},
      {"measurement": "IC50", "setting": "[9]", "result": "> 100", "unit": "µM"},
      {"measurement": "IC50", "setting": "[10]", "result": "> 100", "unit": "µM"},
      {"measurement": "IC50", "setting": "[11]", "result": "> 100", "unit": "µM"},
      {"measurement": "IC50", "setting": "[12]", "result": "> 100", "unit": "µM"},
      {"measurement": "IC50", "setting": "[13]", "result": "> 10", "unit": "µM"},
      {"measurement": "IC50", "setting": "[14]", "result": "> 100", "unit": "µM"},
      {"measurement": "IC50", "setting": "Casein kinase I", "result": "> 100", "unit": "µM"},
      {"measurement": "IC50", "setting": "[15]", "result": "> 100", "unit": "µM"},
      {"measurement": "IC50", "setting": "[16]", "result": 3.3, "unit": "µM"}
    ]}
  ]
}
